Assay [1] addresses T1, LXR ligand binding domain (GST-LXR LBD) (Homo sapiens, UniProt Q13133).
T1 sequence (Q13133 209-447): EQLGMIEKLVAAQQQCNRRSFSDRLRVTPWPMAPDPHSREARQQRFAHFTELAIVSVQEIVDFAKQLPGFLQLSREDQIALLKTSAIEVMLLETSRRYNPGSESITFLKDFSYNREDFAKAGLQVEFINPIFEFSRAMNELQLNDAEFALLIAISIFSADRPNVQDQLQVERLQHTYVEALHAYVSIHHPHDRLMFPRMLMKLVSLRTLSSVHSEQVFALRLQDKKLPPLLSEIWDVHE
In words: In vitro LXR assay (HTR-FRET, coactivator b-SRC1 recruitment). Format: biochemical. The following applies: FRET 12-point dose response. An excerpt:
The LXR assay is configured using time-resolved fluorescence resonance energy transfer technology (HTR-FRET) (see Albers M, Blume B, Schlueter T, Wright MB, Kober I, Kremoser C, Deuschle U, Koegl M; “A novel principle for partial agonism of liver X receptor ligands. Competitive recruitment of activators and repressors”. J. Biol. Chem. 2006 24;281(8) 4920-30; and Chin J, Adams A D, Bouffard A, Green A, Lacson R G, Smith T, Fischer P A, Menke J G, Sparrow C P, Mitnaul L J; “Miniaturization of cell-based beta-lactamase-dependent FRET assays to ultra-high throughput formats to identify agonists of human liver X receptors”. Assay Drug Dev. Technol. 2003 1(6):777-87).
In the presence of an agonist, a fusion protein of glutathione S-transferase (GST) and LXR ligand binding domain (GST-LXR LBD) associates with a biotin-labeled nuclear receptor coactivator (b-SRC1). A fluorescent signal is detected in the presence of Eu-labeled anti GST antibodies and streptavidin-labeled allophycocyanin (APC). FRET is made possible by agonist-dependent close interaction of the test proteins.
Compounds which act as agonists at the LXR ligand binding domain are detected by an increase in time-resolved fluorescence. This LXR-FRET is performed as described by Albers et al. (loc. cit.).
FRET-active compounds are assayed in a FRET 12-point dose response experiment to determine the EC50—values of the compounds mentioned in the following table 9: […]

The next assay concerns the target NPFF2 receptor (Homo sapiens, UniProt Q9Y5X5). The following applies: literature report; cited from earlier work.
A short description of assay [2]: In vivo assay in rats: 8 week feeding study, body weight and body fat. More on the design: species or system Sprague-Dawley (SD) rats. The following applies: high fat diet, 0.1% in chow, 8 weeks, versus control groups. The method, then:
The “further enriched extract” of Example 2 (also called IMD-XT0003 above and below), containing the LXRα active compounds is prepared and tested using six week old, none-adult, male Sprague-Dawley (SD) rats (Charles Rivers, Sulzfeld, Germany). The extract is mixed with the chow (ssniff Spezialdiäten GmbH, Soest, Germany) to a final concentration of 0.1% by weight and fed for 8 weeks in two different treatment regimes: • Balanced diet (standardised to 4% fat) • High fat diet (standardised 34% fat) Controls obtain the same diet without IMD-XT0003 or other anti-obesity additives. Body weight is studied and analysed every week, body fat and mineral bone density are analysed by DEXA (scanner, see Example 3) in week 0, in week 4 and at the last day of the study in week 8. Furthermore, the white body fat weight is determined after removal of the tissue at the end of the feeding study in week 8. For the DEXA measurements the same apparatuses and methodology are used as described in example 3. As a control experiment within the high fat diet, epigallocatechin-3-gallate (EGCG, Chengdu Purification Technology Development Co. Ltd, Chengdu, China) in pure form is used as the standard for comparison of potency and differentiation as well as benchmark against competing compounds or formulations against obesity. […]

Sequence of NPFF2 receptor (Q9Y5X5 whole entry): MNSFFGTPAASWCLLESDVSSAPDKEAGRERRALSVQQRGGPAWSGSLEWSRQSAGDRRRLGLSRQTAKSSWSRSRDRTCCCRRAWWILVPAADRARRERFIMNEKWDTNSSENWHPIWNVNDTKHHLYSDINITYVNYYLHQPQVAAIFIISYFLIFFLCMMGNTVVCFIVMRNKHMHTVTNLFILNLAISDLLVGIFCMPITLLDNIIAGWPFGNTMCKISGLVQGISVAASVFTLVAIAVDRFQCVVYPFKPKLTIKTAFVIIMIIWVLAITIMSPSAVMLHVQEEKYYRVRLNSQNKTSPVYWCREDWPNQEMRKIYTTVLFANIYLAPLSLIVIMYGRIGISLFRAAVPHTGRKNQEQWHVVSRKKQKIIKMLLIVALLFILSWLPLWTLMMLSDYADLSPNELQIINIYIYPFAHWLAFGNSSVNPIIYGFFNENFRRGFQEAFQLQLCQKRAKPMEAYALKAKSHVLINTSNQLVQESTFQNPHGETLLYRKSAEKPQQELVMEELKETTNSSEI

As a reminder, the EC50 is the midpoint of the concentration-response curve. Lower therefore signals higher potency in that assay. The compound `COc1cc2c(c(OC)c1OC)-c1c(cc(OC)c(OC)c1OC)CC(C)C(C)C2` (stereo not shown) [Desoxyschizandrol A, 3,3′,4,4′,5,5′-Hexamethoxy-2,2′-cyclolignan] returned an EC50 in assay [1] above 10 µM. As to `COc1cc2c(c(OC)c1OC)-c1c(cc3c(c1OC)OCO3)[C@H](OC(=O)c1ccccc1)[C@@](C)(O)[C@@H](C)C2` [Gomisin G], on NPFF2 receptor, the NPFF2 receptor agonism entry is listed as “potent NPFF2 receptor agonists”. In the case of `COc1cc2c(c(OC)c1OC)-c1c(cc3c(c1OC)OCO3)CC(C)C(C)C2` (stereo not shown) [Gomisin N, 3,3,4,5-Tetramethoxy-4′,5′-methylenedioxy-2,2′-cyclolignan], the EC50 in assay [1] worked out at 10.6 µM. Same read-out and setting: for `COc1c2c(cc3c1-c1c(cc4c(c1OC)OCO4)CC(C)C(C)C3)OCO2` (stereo not shown) [Schizandrin C, 3,3′-Dimethoxy-4,5:4′,5′-bis(methylenedioxy)-2,2′-cyclolignan] the value was 5.6 µM.

Turning to `COc1cc2c(c(OC)c1OC)-c1c(cc(OC)c(OC)c1OC)[C@H](OC(=O)c1ccccc1)[C@@](C)(O)[C@@H](C)C2` [benzoylgomisin Q], at NPFF2 receptor, the NPFF2 receptor agonism result is reported as “potent NPFF2 receptor agonists”. In the case of epigallocatechin-3-gallate [EGCG], in assay [2], the body fat accumulation result is given as “No effects” and the body weight accumulation entry is “No effects”.

The record behind these values is US20110213026A1, “EXTRACTS WITH LIVER-X-RECEPTOR MODULATORS, COMPOUNDS AND THEIR USE ESPECIALLY IN WEIGHT CONTROL” (INTERMED DISCOVERY GMBH, priority 2007, published 2011).
